Assays:
[1] = associated with a 1000-mg calcium intake increase; women of various ages; estimate; cited from earlier work
[2] = calcium absorbed and retained in postmenopausal women versus placebo; format: in vivo, human; details: inulin in a food product
Description: It is believed that food products prepared in accordance with the present invention, would however provide an enhanced benefit to certain selected demographic sections of the population, namely postmenopausal women.

[3] = double blind three-week study of calcium retention and absorption, inulin delivered in a RTE cereal (mass balance, stable isotope enrichment); format: in vivo, human; details: adolescent girls, ages 11-13, roughly 1600 mg calcium per day and 9 grams of inulin, three weeks
Protocol: In one double blind study ranging over a period of three weeks, a number of adolescent girls, ages 11-13, were provided with a diet containing roughly 1600 mg/calcium per day and 9 grams of inulin. The diet was delivered as part of a RTE cereal and the amount of calcium retention and absorption was measured by mass balance and stable isotope enrichment. Stool and urine samples were collected and analyzed for calcium excretion by atomic absorption spectrometry. Calcium retention was calculated as: Diet Ca−urine Ca−fecal Ca. Blood samples were also taken at prescribed intervals and serum and urine were analyzed for Ca by plasma mass spectrometry. The results of the analysis provided that inulin had no effect on the retention or absorption of calcium by subjects in this particular demographic.

Q: Which “decrease in mean body weight” value [1] does the source give for `[Ca+2]` [calcium] here?
A: Its value is 8 kg.

Q: With inulin as the compound, how does the “level of calcium absorbed and retained versus placebo” value [2] read?
A: The value was “higher”.

Q: And the “effect on absorption of calcium” value [3]?
A: The value was “no effect”.

Q: And the “effect on retention of calcium” value [3]?
A: The value was “no effect”.
